From ChEMBL document CHEMBL1141987, “Two new irreversible inhibitors of dihydrodipicolinate synthase: diethyl (E,E)-4-oxo-2,5-heptadienedioate and diethyl (E)-4-oxo-2-heptenedioate” (Bioorg Med Chem Lett, 2005)

Key:
[1] = molecular target: T1, 4-hydroxy-tetrahydrodipicolinate synthase (Escherichia coli K-12) (UniProt P0A6L2); assay: Inhibitory concentration against Escherichia coli dihydrodipicolinate synthase after 30 minutes
T1 sequence (whole entry): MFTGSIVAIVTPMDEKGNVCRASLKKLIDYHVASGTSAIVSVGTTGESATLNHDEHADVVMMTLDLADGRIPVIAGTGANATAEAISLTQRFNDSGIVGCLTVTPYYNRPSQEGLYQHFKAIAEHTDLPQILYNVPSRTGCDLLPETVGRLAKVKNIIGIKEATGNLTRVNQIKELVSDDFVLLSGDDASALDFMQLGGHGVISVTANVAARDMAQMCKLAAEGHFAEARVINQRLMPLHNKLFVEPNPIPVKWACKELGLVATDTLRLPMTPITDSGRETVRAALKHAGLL

[2] = molecular target: T1, 4-hydroxy-tetrahydrodipicolinate synthase (Escherichia coli K-12); assay: Inhibitory concentration against Escherichia coli dihydrodipicolinate synthase after 15 minutes

## CCOC(=O)/C=C/C(=O)CCC(=O)OCC
[1]
  Concentration: 50 nM
[2]
  Concentration: 50 nM
